Reference: article PMC6669558, “Bioactive Compounds Isolated from Marine Bacterium Vibrio neocaledonicus and Their Enzyme Inhibitory Activities” (Marine Drugs, 2019)
Where “and” joins values, the source holds several entries; their conditions need not be identical. Equal entries are not always repeated. Marks after values point to notes of the source that are not given here.

Assays:
[1] = target: T1, Acetylcholinesterase from Electrophorus electricus (Electrophorus electricus, UniProt O42275); test: Acetylcholinesterase inhibition assay (Ellman, ATCI substrate); format: biochemical
T1 construct: purchased Sigma Aldrich (Shanghai, China)
T1 sequence (O42275 24-633): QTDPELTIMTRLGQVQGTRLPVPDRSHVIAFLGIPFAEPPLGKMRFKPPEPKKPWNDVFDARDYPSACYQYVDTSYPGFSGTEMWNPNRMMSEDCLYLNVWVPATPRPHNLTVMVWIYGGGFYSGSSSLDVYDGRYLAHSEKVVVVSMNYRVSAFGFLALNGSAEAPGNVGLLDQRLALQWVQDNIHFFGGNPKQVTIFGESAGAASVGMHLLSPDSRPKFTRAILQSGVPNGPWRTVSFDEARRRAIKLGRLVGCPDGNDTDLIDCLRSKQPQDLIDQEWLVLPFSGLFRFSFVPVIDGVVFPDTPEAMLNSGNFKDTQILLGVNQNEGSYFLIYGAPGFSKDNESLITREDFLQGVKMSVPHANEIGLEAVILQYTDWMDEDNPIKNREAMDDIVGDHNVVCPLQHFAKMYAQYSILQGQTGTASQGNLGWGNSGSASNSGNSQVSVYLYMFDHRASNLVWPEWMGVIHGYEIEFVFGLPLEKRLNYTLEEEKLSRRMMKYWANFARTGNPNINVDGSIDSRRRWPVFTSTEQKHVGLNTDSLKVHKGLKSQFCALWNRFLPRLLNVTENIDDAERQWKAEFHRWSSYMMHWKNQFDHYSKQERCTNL
Text: (§1) Acetylcholinesterase from Electrophorus electricus, alphaglucosidase from Saccharomyces cerevisiae, and xanthine oxidase from bovine milk were obtained from Sigma Aldrich (Shanghai, China). The other reagents used in the bioassays were purchased either from Solarbio or Sigma Aldrich. Analytical reagent grade organic solvents for extraction were purchased from XL Xilong Scientific Chemical. Silica gel plates (Silica gel 60 F254 0.2 mm layer thickness) were purchased from Merck (KGaA, Darmstadt, Germany). A spectrometer (Thermo Scientific Multiskan GO, Vantaa, Finland) was used for all measurements of AChE, AG and XO inhibitory activities. The venom was extracted and collected manually from the adult specimens of B. asper snakes from Colombia (South America) that were held captive in the Serpentarium at University of Antioquia. The venom was centrifuged, and the supernatant was lyophilized and frozen at −70 °C until its use.
AChE inhibition was determined according to the method of Ellman with ATCI as substrate. […] The control contained all components except the tested extract. The inhibitory rate was calculated as the formula: %I = [1 − (ODs−OD sample sb)/ODn-ODnb] × 100%; where: ODn is the absorbance value of the sample system in which sample is substituted by PBS, ODnb is the absorbance value of ODn in which no AChE was added, ODsb is the absorbance of ODs in which no AchE was added.

[2] = target: T2, alphaglucosidase from Saccharomyces cerevisiae (Saccharomyces cerevisiae, UniProt P53341); test: Alphaglucosidase inhibition assay (pNPG); format: biochemical; settings: for inhibitory activity for the enzyme AG (in words): at any of the tested doses (3.125-50 µg/mL)
T2 construct: purchased Sigma Aldrich (Shanghai, China)
T2 sequence (P53341 whole entry): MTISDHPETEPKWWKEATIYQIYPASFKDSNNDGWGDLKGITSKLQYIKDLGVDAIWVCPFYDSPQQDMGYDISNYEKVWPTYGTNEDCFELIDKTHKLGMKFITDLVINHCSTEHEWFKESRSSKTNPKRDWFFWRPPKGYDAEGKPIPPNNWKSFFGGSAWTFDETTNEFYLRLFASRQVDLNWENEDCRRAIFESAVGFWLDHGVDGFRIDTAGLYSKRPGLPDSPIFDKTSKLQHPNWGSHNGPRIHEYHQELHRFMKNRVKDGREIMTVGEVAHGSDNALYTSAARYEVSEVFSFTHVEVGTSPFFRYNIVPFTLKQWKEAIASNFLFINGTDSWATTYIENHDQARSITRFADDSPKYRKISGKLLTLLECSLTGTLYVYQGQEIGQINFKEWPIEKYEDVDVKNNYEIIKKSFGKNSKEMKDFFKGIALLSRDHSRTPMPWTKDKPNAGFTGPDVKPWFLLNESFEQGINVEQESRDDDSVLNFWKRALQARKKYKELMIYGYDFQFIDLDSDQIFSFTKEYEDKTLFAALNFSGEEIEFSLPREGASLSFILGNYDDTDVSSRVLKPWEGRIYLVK
Text: as §1
The AG inhibition activity was evaluated by measuring the release of p-nitrophenol from p nitrophenyl-α-D-glucopyranoside (pNPG) following the protocol proposed by Pistia-Brueggemann, with modifications. […] The control (C-) contained all the reagents but the sample was substituted by PBS. […] The inhibitory rate was calculated as the formula: %I = [1 − (ODs − OD sample sb)/ODn-ODnb] × 100%; where: ODn is the absorbance value of the sample system in which sample is substituted by PBS, ODnb is the absorbance value of ODn in which no AG was added, ODsb is the absorbance of ODs in which no AG was added.

[3] = target: T3, xanthine oxidase from bovine milk (Bos taurus, UniProt P80457); test: Xanthine oxidase inhibition assay; format: biochemical
T3 construct: purchased Sigma Aldrich (Shanghai, China); host or cells: bovine milk
T3 sequence (P80457 whole entry): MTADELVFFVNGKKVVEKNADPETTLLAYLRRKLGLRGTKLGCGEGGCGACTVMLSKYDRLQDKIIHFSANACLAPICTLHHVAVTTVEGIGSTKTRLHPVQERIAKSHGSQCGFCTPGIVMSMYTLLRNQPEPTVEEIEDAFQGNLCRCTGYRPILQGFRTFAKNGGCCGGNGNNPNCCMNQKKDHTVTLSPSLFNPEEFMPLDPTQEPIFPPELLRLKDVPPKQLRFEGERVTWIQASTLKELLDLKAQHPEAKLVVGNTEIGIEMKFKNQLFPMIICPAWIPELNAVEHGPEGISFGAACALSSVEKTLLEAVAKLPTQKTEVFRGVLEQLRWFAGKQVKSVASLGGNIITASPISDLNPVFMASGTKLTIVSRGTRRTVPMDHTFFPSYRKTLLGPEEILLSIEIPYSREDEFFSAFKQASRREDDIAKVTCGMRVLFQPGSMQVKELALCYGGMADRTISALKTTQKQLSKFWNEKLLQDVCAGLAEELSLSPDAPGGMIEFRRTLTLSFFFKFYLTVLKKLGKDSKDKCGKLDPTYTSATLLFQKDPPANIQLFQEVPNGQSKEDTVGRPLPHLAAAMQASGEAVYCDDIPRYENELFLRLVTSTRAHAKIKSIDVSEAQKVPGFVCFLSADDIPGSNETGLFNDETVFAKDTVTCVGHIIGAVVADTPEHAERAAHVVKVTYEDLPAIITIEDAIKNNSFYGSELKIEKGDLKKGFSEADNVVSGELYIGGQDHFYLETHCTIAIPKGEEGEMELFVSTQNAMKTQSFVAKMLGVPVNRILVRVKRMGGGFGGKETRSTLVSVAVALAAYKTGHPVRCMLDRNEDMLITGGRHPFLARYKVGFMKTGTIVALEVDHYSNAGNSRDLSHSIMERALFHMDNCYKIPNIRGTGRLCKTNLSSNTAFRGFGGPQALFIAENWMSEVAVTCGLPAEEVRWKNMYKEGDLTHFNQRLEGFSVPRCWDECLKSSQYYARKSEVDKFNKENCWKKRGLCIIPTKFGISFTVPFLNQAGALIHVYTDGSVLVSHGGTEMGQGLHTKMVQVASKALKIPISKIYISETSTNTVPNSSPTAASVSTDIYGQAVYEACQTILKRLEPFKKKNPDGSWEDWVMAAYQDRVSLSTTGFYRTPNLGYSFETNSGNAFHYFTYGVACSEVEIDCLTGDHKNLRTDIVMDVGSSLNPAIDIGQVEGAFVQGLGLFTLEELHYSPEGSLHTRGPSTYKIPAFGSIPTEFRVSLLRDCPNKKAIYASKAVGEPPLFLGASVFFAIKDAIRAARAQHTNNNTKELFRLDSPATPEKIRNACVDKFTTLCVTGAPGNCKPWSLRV
Text: as §1
The assay was based on the developed method of Valentao [56] and modified for application in microplates by Lopez-Cruz. All test samples were dissolved in a 50 mM phosphate buffer to simulate the environment in which the reaction occurs in the body. […] The control contained all components except the sample. The inhibitory rate was calculated as the formula: %I = [1 − (ODs − OD sample sb)/ODn-ODnb] × 100%; where: ODn is the absorbance value of the sample system in which sample is substituted by PBS, ODnb is the absorbance value of ODn in which no XO was added, ODsb is the absorbance of ODs in which no XO was added.

B. asper venom [4] = test: Inhibition of proteolytic activity of venom on azocasein; format: biochemical, Bothrops asper; settings: 3 µg venom per well
Text: as §1
The proteolytic activity was measured on azocasein (Sigma Aldrich, St. Lous, MO, USA) according to Wang with some modifications. […] The supernatant (100 μL) was mixed with an equal volume of 0.5 M NaOH, and the absorbance was measured at 450 nm. Results are shown as percentage of activity (absorbance at 450 nm). […]

[5] = system: Metalloproteinase (Batx-I); test: Inhibition of proteolytic activity of isolated metalloproteinase on azocasein; format: biochemical, Bothrops atrox; settings: 3 µg toxin per well
Protocol: (§2) Batx-I was isolated from Bothrops atrox according to the protocol of Patiño. Purification was done by ion-exchange chromatography (CM Sephadex C25) and the toxin purity was tested by RP-HPLC and SDS PAGE. PLA2 was isolated from Crotalus durissus cumanensis according to the protocol of Pereañez. PLA2 was purified by RP-HPLC on C-18 column eluted at 1.0 mL/min with a gradient from 0% to 100% acetonitrile in 0.1% trifluoroacetic acid (v/v). Absorbance was monitored at 215 nm. Batx-I and Cdcum6 were lyophilized and stored at −20 °C until their use.
The proteolytic activity was measured on azocasein (Sigma Aldrich, St. Lous, MO, USA) according to Wang with some modifications. Briefly, 3 µg of B. asper venom or Batx-I were dissolved in 5 μL of 25 mM Tris (0.15 M NaCl, 5 mM CaCl2), pH 7.4, and were mixed with different doses of indole in order to obtain 1:20, 1:10 and 1:5 w/w ratios, respectively. Mixes were pre-incubated for 30 min at 37 °C. Later, these solutions were incubated with 10 mg/mL of azocasein diluted in the same buffer. After an incubation of 90 min at 37 °C, the reaction was stopped by the addition of 200 μL of trichloroacetic acid. The samples were then centrifuged at 3000 rpm for 5 min. The supernatant (100 μL) was mixed with an equal volume of 0.5 M NaOH, and the absorbance was measured at 450 nm. Results are shown as percentage of activity (absorbance at 450 nm). […]

B. asper venom [6] = test: Inhibition of coagulant activity of venom (plasma clotting time); format: biochemical, Bothrops asper
Protocol: The method described by Theakston and Reid was followed, with small modifications. Briefly, 1.0 µg of B. asper dissolved in 25 µL PBS were mixed with 75 µL of different concentrations of indole, and pre-incubated for 30 min at 37 °C. After, 100 µL of mixtures were added to 0.2 mL of plasma, and the time required for plasma coagulation was determined.

[7] = system: Phospholipase A2 (Cdcum6); test: Inhibition of PLA2 activity with 4N3OBA substrate; format: biochemical, Crotalus durissus cumanensis
Protocol: as §2
The inhibitory effect of indole on the PLA2 of snake venom was assessed by two methods; the first of them, using monodispersed substrate 4N3OBA (manufactured by BIOMOL, Hamburg Germany) according to the method described by Holzer and Mackessy and adapted for a 96-well ELISA plate. […] The inhibitory effect of indole on PLA2 activity was determined through pre-incubation of the enzyme with each concentration of the compound for 30 min at 37 °C. After the incubation period, the sample was added to the assay and the reaction was monitored at 425 nm for 40 min at 37 °C. The quantity of chromophore released (4-nitro-3-hydroxy benzoic acid) was proportional to the enzymatic activity. […]

B. asper venom [8] = test: Inhibition of indirect hemolytic activity (agarose-erythrocyte-egg yolk gels); format: biochemical, Bothrops asper; settings: at tested doses
Protocol: The second method to evaluate the inhibitory effect of indole on PLA2, was determining the inhibition of the indirect hemolytic activity. This was evaluated in agarose-erythrocyte-egg yolk gels according to Gutierrez. It used a minimum indirect hemolytic dose (MIHD) of B. asper venom of 2.2 μg, defined as the amount of venom that induced a 20 mm diameter hemolytic halo. Venom and different doses of indole were preincubated for 30 min at 37 °C and the inhibitory potential was measured after 20 h of plate incubation at 37 °C. This experiment was done in triplicate.

[9] = dose 50 µg/mL, listed as indole

Compound O=Cc1c[nH]c2ccccc12 [1H-indole-3-carboxaldehyde] has an AChEI% ([1]; dose 3.125 µg/mL) of 0%, an AChEI% ([1]; dose 6.25 µg/mL) of 0% and an AChEI% ([1]; dose 25 µg/mL) of 0%. The AChEI% ([1]; dose 50 µg/mL) was 0%, the “inhibitory activity for the enzyme AG (in words)” value [2] was “no inhibitory activity” and the AGI% ([2]; dose 3.125 µg/mL) was 0%. The AGI% ([2]; dose 6.25 µg/mL) was 0%, the AGI% ([2]; dose 25 µg/mL) was 0% and the AGI% ([2]; dose 50 µg/mL) was 0%. For the same compound, the IC50 [3] was 13.4 ± 0.39 µM, the XOI% ([3]; dose 3.125 µg/mL) was 61.14% and 61.14 ± 0.14 % and the XOI% ([3]; dose 6.25 µg/mL) was 67.69% and 67.69 ± 0.34 %. The XOI% ([3]; dose 25 µg/mL) was 86.49% and 86.49 ± 0.89 % and the XOI% ([3]; dose 50 µg/mL) was 100% and 100 *** %.

With O=Cc1ccc(O)cc1 [4-hydroxybenzaldehyde] the IC50 [1] was 6890 ± 118 µM, the AChEI% ([1]; dose 3.125 µg/mL) was 0% and the AChEI% ([1]; dose 6.25 µg/mL) was 4.21 ± 0.01%. For the same compound, the AChEI% ([1]; dose 25 µg/mL) was 14.26 ± 0.011%, the AChEI% ([1]; dose 50 µg/mL) was 25.7% and 25.7 ± 0.56% and the “inhibitory activity for the enzyme AG (in words)” value [2] was “no inhibitory activity”. For the same compound, the AGI% ([2]; dose 3.125 µg/mL) was 0%, the AGI% ([2]; dose 6.25 µg/mL) was 0% and the AGI% ([2]; dose 25 µg/mL) was 0%. It also gave an AGI% ([2]; dose 50 µg/mL) of 0%, an IC50 [3] of 506 ± 16 µM and an XOI% ([3]; dose 3.125 µg/mL) of 17.39 ± 0.49%. The XOI% ([3]; dose 6.25 µg/mL) was 25.27 ± 0.19%, the XOI% ([3]; dose 25 µg/mL) was 31.67 ± 0.52% and the XOI% ([3]; dose 50 µg/mL) was 50.75% and 50.75 ± 0.50%.

In the case of c1ccc2[nH]ccc2c1 [Indole, indole], the IC50 [1] is reported as 335 ± 13.1 µM, the AChEI% ([1]; dose 3.125 µg/mL) is reported as 0% and the AChEI% ([1]; dose 6.25 µg/mL) is reported as 9.42 ± 0.07%. For the same compound, the AChEI% ([1]; dose 25 µg/mL) was 37.54 ± 1.26%, the AChEI% ([1]; dose 50 µg/mL) was 51.3 ± 1.67 % and the AChEI% [1, 9] was 51.3%. It also gave an AGI% ([2]; dose 3.125 µg/mL) of 51.43 ± 1.06 %, an AGI% ([2]; dose 3.125 µg/mL, listed as indole) of 51.43% and an AGI% ([2]; dose 6.25 µg/mL) of 81.49 ± 1.17 %. For the same compound, the AGI% ([2]; dose 6.25 µg/mL, listed as indole) was 81.49%, the AGI% ([2]; dose 25 µg/mL) was 94.4 ± 1.01 % and the AGI% ([2]; dose 25 µg/mL, listed as indole) was 94.4%. The AGI% ([2]; dose 50 µg/mL) was 100 *** %, the IC50 ([2]; read-out: AG (IC50 µM)) was 18.7 ± 1.1 µM and the IC50 [3] was 843 ± 16.7 µM. For the same compound, the XOI% ([3]; dose 3.125 µg/mL) was 15.01 ± 0.31%, the XOI% ([3]; dose 6.25 µg/mL) was 17.77 ± 0.52% and the XOI% ([3]; dose 25 µg/mL) was 25.17 ± 0.65%. The XOI% ([3]; dose 50 µg/mL) was 44.30 ± 1.14%, the XOI% [3, 9] was 44.3% and the “proteolytic activity inhibition of B. asper venom (in words)” value (B. asper venom [4]; venom:compound ratio 1:10) was “weak inhibition without significance”. The “proteolytic activity inhibition of B. asper venom” value (B. asper venom [4]; venom:compound ratio 1:20 w/w) was 77.9% ± 5.5, the “inhibition of proteolytic activity of metalloprotease” value ([5]; toxin:compound ratio 1:5, not significant) was 4.31 ± 1.9 and the “inhibition of proteolytic activity of metalloprotease” value ([5]; toxin:compound ratio 1:10) was 13.54 ± 2.5. The “coagulant activity of the compound by itself (in words)” value (B. asper venom [6]; compound alone, after half an hour of incubation) was “did not generate coagulant activity”, the “inhibition of the coagulating effect in vitro (in words)” value (B. asper venom [6]; induced by 1.0 µg of venom) was “significant in vitro inhibition” and the “maximum delay time for clotting onset (clotting time)” value (B. asper venom [6]; venom:compound ratio 1:20 w/w, 1.0 µg venom, venom alone 21.6 ± 0.8 s) was 99 ± 4.0 s. For the same compound, the “inhibition of PLA2 activity (given as proteolytic activity inhibition)” value ([7]; toxin:compound ratio 1:10) was 10.0%, the “inhibition of PLA2 activity (given as proteolytic activity inhibition)” value ([7]; toxin:compound ratio 1:20) was 15.20% and the “inhibition of the indirect hemolytic activity of the complete venom (in words)” value (B. asper venom [8]) was “did not show inhibition”.
